Assay results taken from patent US9522124B2, “Methods for treating Alzheimer's disease” (Wisconsin Alumni Research Foundation, priority 2011, dated 2016).

Test system: ATase1 and ATase2
Assay: Western blot of ATase1 and ATase2 levels in CHO cells over-expressing transgenic ATase1 or ATase2
Assay type: cell-based, hamster
Conditions: 10 μM, 48 hours
Method: FIG. 4. Compound 9 causes degradation of the ATases. (A) H4 cells were treated with the indicated compounds (10 μM) for 48 hours prior to Western blot assessment of BACE1 and ATase1/ATase2 levels in total cell lysates. (B, D and E) Quantification of changes are expressed as percent of control (no treatment) and are the average (n=3)±S.D.*, P<0.05; **, P<0.005; ^#, P<0.0005. (C) ELISA determination of secreted Aβ in the conditioned media of the experiment described in (A). Results are expressed as percent of control (no treatment) and are the average (n=3)±S.D.*, P<0.05; **, P<0.005. (F) CHO cells over-expressing either ATase1 or ATase2 were treated with compound 9 (10 μM) for 48 hours prior to Western blot assessment of ATase1 and ATase2 levels in total cell lysates.
Western blotting was performed on a 4-12% Bis-Tris SDS-PAGE system (NuPAGE; Invitrogen, Carlsbad, Calif., USA) as described previously (Costantini et al., 2006; Jonas et al., 2008; Jonas et al., 2010; Ko and Puglielli, 2007; Ko and Puglielli, 2009; Pehar et al., 2010). […]

O=c1c(Cl)c2oc3ccccc3nc-2c2ccccc12 [Compound 9]
levels of transgenic ATase1 and ATase2: significantly decreases
